# Literature values, collected in patent US9061040B2, “Combination therapy for breast cancer” (priority 2011, dated 2015).
# Legend:
# [1] = 180-300 mg/day over 10 years
# liver cancer = conditions: 45 mg daily for two years, women with viral liver cirrhosis
# advanced prostate cancer = conditions: supplemental intake greater than 400 IU/day; current smokers or quit within the past 10 years
# prostate cancer = conditions: male smokers
compound,measurement,setting,value
CC1=C(/C=C/C(C)=C/C=C/C(C)=C/C=C/C=C(C)/C=C/C=C(C)/C=C/C2=C(C)CCCC2(C)C)C(C)(C)CCC1 [β-carotene],toxicity,[1],did not show any toxicity
menaquinone [vitamin K2 (menaquinone)],less likely to develop liver cancer,liver cancer,~90%
vitamin E,reduction in risk of advanced prostate cancer,advanced prostate cancer,71%
same,reduction of prostate cancer cases,prostate cancer; 50 mg daily versus no vitamin E,one-third reduction
same,new cases of prostate cancer among participants who received vitamin E,"prostate cancer; 50 mg daily, 5 to 8-year intervention, 147 cases without vitamin E, 246 in total",99 cases
